Test results: BindingDB's records for doi:10.1016/j.bmc.2011.01.024 (University of Rome Tor Vergata, 2011)

Experiment: Inhibition of HIV1 3B reverse transcriptase activity infected in human H9 cells assessed as level of p24 antigen

IC50: 4.48 nM
SMILES: CC1(C)O[C@H]2CC(=O)OC[C@]23[C@H]2CC[C@@]4(C)[C@H](c5ccoc5)OC(=O)[C@H]5O[C@]54[C@]2(C)C(=O)C[C@@H]13 [Limonin]
